Where a name gives a salt, the structure may show the parent alone. Blank lines part the entries; values can stand above or below the molecule they belong to.
How the values were obtained:
[1] = molecular target: T1, RPN13 (Homo sapiens, UniProt Q16186); test: Biotin labeling assay; type: binding; conditions: cell lysate or purified RP, streptavidin-peroxidase blot
T1 construct: endogenous in cells; host or cells: HeLa, HS578T cell lysate
Procedure: FIGS. 10 A-10E show a series of graphs and immunoblots showing the effects of several compounds on cell viability and proteasome activity. […] 10B and 10C show immunoblots of the proteasome activity of cell lines treated with the indicated compounds. […] IC50 values were determined in triplicate. In FIG. 10B, HeLa cells were treated for 12 hr and the cell lysate was subjected to immunoblot analysis with anti-Ubiquitin antibody. In FIG. 10C, SiHa cells were treated with the indicated compounds for 12 hr and the lysate subjected to Western blot analysis with anti-Ubiquitin antibody. HeLa cell lysate was treated with RA190B, subjected to SDS-PAGE, and probed with streptavidin-peroxidase following protein transfer to a polyvinylidene difluoride (PVDF) membrane. The streptavidin-peroxidase bound to biotinylated cellular proteins, but a striking new band at 42 kDa appeared in RA190B-treated samples (FIG. 2A). […] IC50 values were determined in triplicate.
To eliminate the possibility that another RP component was required for RA190B interaction, RPN13 or an irrelevant protein (L2) was overexpressed in bacteria. Cell lysate harvested from bacteria either with or without […] induction of ectopic protein expression was labeled with RA190B and probed by blotting with streptavidin-peroxidase. RA190B reacted strongly with a 42 kDa protein only in lysates of bacteria expressing RPN13 (FIG. 2D). […] 800 μL fractions were collected and alternate fractions (1,3,5,7,9,11,13,15,17) were analyzed for the presence of proteasomal proteins (RPN13, RPN2, RPN1 and UCH37) by Western blot analysis.
Human cells (5×10^6 HeLa or 293TT cells) were lysed using MPER (Pierce) lysis buffer (500 μL). RPN13 or HPV L2 transformed bacterial cells (500 μL of culture) were centrifuged to harvest the cells which were re-suspended in 500 μL BPER (Pierce). Cell lysates were centrifuged at 10,000 rpm briefly (2 min) at 4° C. to remove cell debris. Lysate supernatant (200 μL) was pre cleared with streptavidin dyna beads (20 μL) for 1 h at 4° C. to remove non-specific biotin binding and incubated with compounds (indicated concentrations or 20 μM) at 4° C. for 1 hr. An equal amount of each sample (20 μL of lysate) was mixed with an equal volume of Laemmli sample buffer (20 μL) (BioRad) and was boiled for 5 min. […] (24 V). Membrane was blocked with 5% BSA in PBST for 1 hr at room temperature and washed for 20 min (3×PBST). Then the membrane was probed with HRP-streptavidin (1:10,000 in PBST) for 1 hr at room temperature and washed for 30 min (3×PBST) and developed using HyGLO chemiluminescent detection reagent (Denville) for biotin recognition. For the purified enzyme assay, 19S purified proteasome (R&D Systems, Cat. No. E-366) (500 ng) in 19S buffer (20 mM HEPES, 20 mM NaCl, 1 mM DTT, 15% Glycerol) was incubated with compounds (20 μM) for 1 hr at room temperature and mixed with an equal volume of Laemmli sample buffer (20 μL) (BioRad) and was boiled for 5 min. Each sample was loaded onto gel and followed the western blot protocol mentioned above.
Purified 19S proteasome (500 ng) was incubated with corresponding compounds for 30 min and subjected to immunoblot and probed with HRP-conjugated streptavidin. In FIG. 23, the single band at 42 KDa indicates Rpn13 binding to 195. RA183B (20 μM) is used as positive control for Rpn13 binding. Competition experiments were done with RA183 (100 μM) and RA195 (100 μM) along with RA195B (20 μM).

[2] = test system: cancer cells; test: Antiproliferative activity against cancer cells (design rationale); type: cell-based
From the text: We used Chloro and Nitro functional groups as substituent's on the aromatic ring due to their greater electron withdrawing effect at ortho (or) para (or) meta (or) both positions along with different amino acid linkages on bis-benzylidine piperidone moiety. Amino acids were chosen based in their physical characteristics like very hydrophobic (phenylalanine), strongly basic and hydrophilic (lysine), basic and hydrophilic (histidine) and amphiphilic (glycine). Commercially available Fmoc and Boc protected amino acids were used in the synthesis, and they were evaluated for their antiproliferatory activity against cancer cells.
Next we synthesized another set of compounds by converting free amine functionality to its Acetate (Ac), Acrolyl (Acr) and Benzoyl […] analogs as these units are part of many anticancer drugs because of their smaller size and feasibility to form inter molecular hydrogen bonds with proteins.
In the RA195 molecule two amino functionalities of lysine can provide more flexibility to make better analogs.

[3] = test system: HeLa; test: Cell viability after 48-hr treatment (Table 1); type: cell-based, human; conditions: for IC50: 48-hr treatment, XTT assay, read-out: IC50, HeLa; for potency in cell killing and polyubiquitin accumulation / functional assays relative to RA190: HeLa cells, FIGS. 1I, 9I, 10A-10C
Procedure: (§1) Cell viability was assayed using CellTiter 960 AQueous One Solution Reagent (Promega, Madison, Wis.). Cells seeded at the concentration of 1,000 cells/well for HeLa, 5,000 cells/well for ES2 and HCT116 and 10,000-20,000 cells/well for other cell lines in 100 μL medium in 96-well plate were treated with RA series compounds at specified concentrations. […]

[4] = test system: OVCAR3; test: Cell viability after 48-hr treatment (Table 1); type: cell-based, human; conditions: XTT assay
Procedure: as §1

[5] = test system: CasKi; test: Cell viability after 48-hr treatment (Table 1); type: cell-based; conditions: 48-hr treatment; XTT assay; read-out: IC50, CasKi
Procedure: (§2) Cell viability was assayed using CellTiter 960 AQueous One Solution Reagent (Promega, Madison, Wis.). Cells seeded at the concentration of 1,000 cells/well for HeLa, 5,000 cells/well for ES2 and HCT116 and 10,000-20,000 cells/well for other cell lines in 100 μL medium in 96-well plate were treated with RA series compounds at specified concentrations. After the indicated periods, cells were incubated according to the manufacturer's protocol with the MTS labeling mixture for 1-2 hr and absorbance at 490 nm measured using a Benchmark Plus microplate spectrophotometer (BIO-RAD).

[6] = test system: HOK-16B; test: Cell viability after 48-hr treatment (Table 1); type: cell-based; conditions: 48-hr treatment; XTT assay; read-out: IC50, HOK-16B
Procedure: as §2

[7] = test system: HT3; test: Cell viability after 48-hr treatment (Table 1); type: cell-based; conditions: 48-hr treatment; XTT assay; read-out: IC50, HT3
Procedure: (§3) Cells seeded at the concentration of 1,000 cells/well for HeLa, 5,000 cells/well for ES2 and HCT116 and 10,000-20,000 cells/well for other cell lines in 100 μL medium in 96-well plate were treated with RA series compounds at specified concentrations. […]

[8] = test system: HaCaT; test: Cell viability after 48-hr treatment (Table 1); type: cell-based; conditions: 48-hr treatment; XTT assay; read-out: IC50, HaCaT
Procedure: as §3

[9] = test system: SiHa; test: Cell viability after 48-hr treatment (Table 1); type: cell-based; conditions: 48-hr treatment; XTT assay; read-out: IC50, SiHa
Procedure: as §3

[10] = test system: C33A; test: Cell viability after 48-hr treatment (Table 1); type: cell-based; conditions: 48-hr treatment; XTT assay; read-out: IC50, C33A
Procedure: as §1

[11] = test system: FaDu; test: Cell viability after 48-hr treatment (Table 1); type: cell-based; conditions: 48-hr treatment; XTT assay; read-out: IC50, FaDu
Procedure: as §1

[12] = test system: SKOV3; test: Cell viability after 48-hr treatment (Table 1); type: cell-based; conditions: 48-hr treatment; XTT assay; read-out: IC50, SKOV3
Procedure: as §1

T1 sequence (Q16186 whole entry): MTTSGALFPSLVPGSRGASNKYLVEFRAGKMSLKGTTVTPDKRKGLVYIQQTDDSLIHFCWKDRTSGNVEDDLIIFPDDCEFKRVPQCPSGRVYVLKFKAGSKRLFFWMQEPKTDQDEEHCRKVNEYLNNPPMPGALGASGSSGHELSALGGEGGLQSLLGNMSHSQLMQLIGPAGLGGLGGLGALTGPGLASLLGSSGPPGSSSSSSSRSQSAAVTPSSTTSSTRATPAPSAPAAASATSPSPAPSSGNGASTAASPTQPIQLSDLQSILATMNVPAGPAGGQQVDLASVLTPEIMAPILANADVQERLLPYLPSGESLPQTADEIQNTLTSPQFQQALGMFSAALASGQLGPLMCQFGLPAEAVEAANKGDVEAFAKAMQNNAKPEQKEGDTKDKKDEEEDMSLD

labeling of / competition for RPN13 (42 kDa band) [1]: labels HeLa cell lysate at 42 KDa
SMILES: O=C(CCCC[C@@H]1SCC2NC(=O)NC21)NCCCC[C@H](NC(=O)OCC1c2ccccc2-c2ccccc21)C(=O)N1C/C(=C\c2ccc(Cl)c(Cl)c2)C(=O)/C(=C/c2ccc(Cl)c(Cl)c2)C1 (some centres unmarked) [RA195B]

SMILES: O=C1/C(=C/c2ccc(Cl)c(Cl)c2)CN(C(=O)[C@H](Cc2ccccc2)NC(=O)c2ccccn2)C/C1=C\c1ccc(Cl)c(Cl)c1 [RA190P]
antiproliferative potency among analogs [2]: Neither of these compounds was as good as RA190

SMILES: Cl.NC(Cc1ccccc1)C(=O)N1C/C(=C\c2ccc(Cl)c(Cl)c2)C(=O)/C(=C/c2ccc(Cl)c(Cl)c2)C1 (centres unmarked) [RA190D]
antiproliferative potency among analogs [2]: Neither of these compounds was as good as RA190

SMILES: N[C@@H](Cc1c[nH]cn1)C(=O)N1CC(=Cc2ccc(Cl)c(Cl)c2)C(=O)C(=Cc2ccc(Cl)c(Cl)c2)C1 [RA196, 3,5-bis(3,4-dichlorobenzylidene)-1-(S-1H-imidazol-4-yl) piperidin-4-one di HCl salt]
IC50 [3]: 600 nM | IC50 [4]: 2500 nM | IC50 [5]: 1000 nM | IC50 [6]: 3000 nM | IC50 [7]: > 5000 nM | IC50 [8]: > 2500 nM | IC50 [9]: 2000 nM | IC50 [10]: > 5000 nM | IC50 [11]: > 5000 nM | IC50 [12]: > 2500 nM

labeling of / competition for RPN13 (42 kDa band) [1]: bound to the 42 kDa protein
SMILES: O=C(CCCC[C@@H]1SCC2NC(=O)NC21)N[C@@H](Cc1ccccc1)C(=O)N1C/C(=C\c2ccc(Cl)c(Cl)c2)C(=O)/C(=C/c2ccc(Cl)c(Cl)c2)C1 (some centres unmarked) [RA190B]
potency in cell killing and polyubiquitin accumulation / functional assays relative to RA190 [3]: did not affect its potency

SMILES: N[C@@H](Cc1ccccc1)C(=O)N1CC(=Cc2ccccc2F)C(=O)C(=Cc2ccccc2F)C1 [RA201, 3,5-bis(2-fluorobenzylidene)-1-(S-2-amino-3-phenyl)-piperidin-4-one-HCl salt]
IC50 [3]: 350 nM | IC50 [4]: > 5000 nM | IC50 [5]: 2500 nM | IC50 [6]: 1500 nM | IC50 [7]: > 5000 nM | IC50 [8]: > 2500 nM | IC50 [9]: 2000 nM | IC50 [10]: > 5000 nM | IC50 [11]: > 5000 nM | IC50 [12]: > 2500 nM

SMILES: Cl.N[C@@H](Cc1ccccc1)C(=O)N1CC(C(SCCO)c2ccc(Cl)c(Cl)c2)C(=O)C(C(SCCO)c2ccc(Cl)c(Cl)c2)C1 (some centres unmarked) [RA190ME, 3,5-bis((2-hydroxyethylthio)(3,4-dichlorophenyl)methyl)-1-(S-2-amino-3-phenyl)-piperidin-4-one-HCl salt]
potency in cell killing and polyubiquitin accumulation / functional assays relative to RA190 [3]: significantly reduced its potency

Source: patent publication US10500198B2, “Bis-benzylidine piperidone proteasome inhibitor with anticancer activity” (The Johns Hopkins University, priority 2013, dated 2019)
